Results published in patent US10646478B2, “Methods for treatment of melanoma” (CHILDREN'S MEDICAL CENTER CORPORATION, priority 2011, dated 2020).

Assays:
[1] = system: crestin+ neural crest progenitors; experiment: In situ hybridization (ISH) for crestin in zebrafish embryos (chemical screen for suppressors of neural crest development); format: in vivo; conditions: for rescue of neural crest population (crestin ISH): in the presence of leflunomide, A771726 or DH #1
Description: The screen was performed essentially as previously described^31. In brief, WT embryos were collected, staged and then plated at a density of 10 embryos per well in a […] tissue culture plate in 200 ul of E3 water. At 50% epiboly, 100 ul of a 3× chemical stock was added to each well using a Hamilton liquid handling robot, yielding a final 1× concentration. For the majority of the chemicals in the library, this yielded a concentration of ˜33 uM. The libraries used were the BIOMOL 480, Sigma LOPAC 1280, and selected additional compounds obtained through the Children's Hospital Boston Chemical Screening facility. Compounds known to affect pigmentation in Xenopus were obtained from a screen previously described^32, 33. After treatment, embryos were rinsed in E3 water, pronase treated to remove chorions, washed 4× in E3 and 1× in PBT, and then fixed in 4% PFA for 24 hours. Fixed embryos were changed to 100% methanol 24 h later, and kept until the time of ISH.
Embryos underwent automated ISH using a Biolane HTI robot with a crestin riboprobe as previously described^31. All wells were manually scored by eye, assigning a score within a range of 1 (no crestin staining) to 3 (no change in crestin) to 5 (marked increase in crestin). Note was also taken of chemicals that affected migratory patterns in both A-P and D-V directions, and overall morphology. […] All hits were validated in larger, independent clutches of 100-200 embryos using chemicals obtained from independent suppliers.

[2] = molecular target: T1, P. falciparum DHODH (Plasmodium falciparum, UniProt Q08210); experiment: In vitro DHODH assay (DCIP reduction), malarial enzyme; format: biochemical; conditions: FIG. 11
T1 sequence (Q08210 24-569): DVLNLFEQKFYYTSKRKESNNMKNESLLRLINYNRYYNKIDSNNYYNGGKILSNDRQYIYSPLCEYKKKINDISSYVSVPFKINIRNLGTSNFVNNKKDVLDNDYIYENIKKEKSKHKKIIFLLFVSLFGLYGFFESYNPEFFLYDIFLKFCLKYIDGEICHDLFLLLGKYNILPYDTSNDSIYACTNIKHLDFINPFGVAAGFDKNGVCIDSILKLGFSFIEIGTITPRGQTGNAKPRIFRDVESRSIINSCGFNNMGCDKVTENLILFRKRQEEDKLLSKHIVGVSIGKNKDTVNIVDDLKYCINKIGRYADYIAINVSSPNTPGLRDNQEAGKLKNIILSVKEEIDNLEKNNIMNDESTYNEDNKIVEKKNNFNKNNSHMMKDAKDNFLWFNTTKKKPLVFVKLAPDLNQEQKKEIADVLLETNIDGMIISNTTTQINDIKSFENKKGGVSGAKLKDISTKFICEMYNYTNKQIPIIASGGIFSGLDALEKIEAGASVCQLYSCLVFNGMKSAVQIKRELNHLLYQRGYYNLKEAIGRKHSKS
Description: (§1) The DHODH activity assay monitored the reduction of 2,6-dichloroindophenol (DCIP) and was conducted in 50 μl of 100 mM HEPES (pH 8.0) containing 150 mM NaCl, 5% glycerol, 0.05% Triton X-100, 175 μM L-DHO, 18 μM decylubiquinone (CoQD), and 95 μM DCIP, arrayed in a 384-well format. The concentrations of enzymes used were as follows: P. falciparum 12.5 nM, human 7 nM. Following a 20 minute incubation at room temperature the absorbance was measured at 600 nm (Envision, PerkinElmer).

[3] = molecular target: human DHODH (Homo sapiens, UniProt Q02127); experiment: In vitro DHODH assay (DCIP reduction), human enzyme; format: biochemical; conditions: FIG. 11
Description: as §1

[4] = system: ventral melanocytes; experiment: Ventral melanocytes in Xenopus embryos; format: in vivo; conditions: stage 38 embryos
[5] = system: human melanoma cell lines (A375, Hs.294t, RPMI7951); experiment: In vitro melanoma proliferation assay (CellTiterGlo); format: cell-based; conditions: RPMI7951 (BRAFV600E)
Description: (§2) Human melanoma cell lines (A375, RPMI7951, Hs.294T, MAMLE-3M) were obtained from the American Type Culture Collection. The 8988 cell line was provided by Alec Kimmelman at Dana Farber, and the PANC1 and MDA-231-MB lines were provided by Rania Hartouche at Harvard. Cells were cultured in DMEM/10% FCS at 37 C, 5% CO2. For proliferation assays, 96-well clear bottom plates were used to plate cells at a density of 5,000 cells/well (RPMI7951 and A375) or 10,000 cells/well (MAMLE-3M-3M and Hs.294T) in 100 ul containing indicated concentrations of A771726 or PLX4720 or DMSO. All conditions were tested in triplicate. Media was changed at day 2, and proliferation rate was measured at day 4 using the CellTiterGlo assay kit (Promega). All values are expressed are the % of luciferase relative to the DMSO control well. Differences between groups were statistically analyzed using a generalized linear ANOVA model taking into account factors of PLX4720, A771726 and dose. IC50's were calculated using a log-logistic model.

[6] = system: pancreatic cancer (8988, PANC1) and breast cancer (MDA-MD-231) cell lines; experiment: In vitro proliferation assay in non-melanoma cell lines; format: cell-based, human; conditions: BRAF WT; 8988, PANC1, MDA-MD-231
Description: as §2

[7] = system: A375 melanoma cells; experiment: In vivo xenograft study of A375 cells in nude mice; set-up: species or system mouse; conditions: daily i.p.; PLX4720 2.5 mg/kg, Leflunomide 7.5 mg/kg; DMSO 7.4+/−1.3-fold
Description: The A375 cell line was chosen for xenografts based on prior experience with PLX4720 in this line. Cells were grown to 60-70% confluence, trypsinized and 3.5×10^5 cells were transplanted into the right flank of nude mice in a volume of 200 ul. […] Tumors were measured with digital calipers on day 4, 7 and 12 and growth rate was compared to the tumor size on day 0. Growth rates were compared between DMSO, PLX, LEF or […] using ANOVA with repeated measures to identify significant interactions. For the day 12 data, differences between the groups were compared using ANOVA followed by posthoc Tukey's least-squared difference.

[8] = system: neural crest stem cells (NCSCs) from fetal (E14.5) rat gut; experiment: Rat neural crest stem cell assays (self-renewal, colony size, differentiation); format: cell-based
Description: Enteric NCSCs from the fetal (E14.5) rat gut were isolated using flow cytometry to select the 1%-2% of cells expressing the highest levels p75 and α4 integrin as previously described^9. Cells were plated at clonal density in two wells/treatment and cultured in self-renewal medium for 8 days in LEF, A771726 or the vehicle (DMSO) followed by differentiation medium+/−LEF, A771726 or DMSO for 6 days. Cultures were fixed in 4% PFA then stained with antibodies against peripherin, GFAP, and SMA to identify neurons (N), glia (G) and myofibroblasts (M) respectively (U=unstained cells). A total of 3 to 4 independent experiments were performed, and differences measured by ANOVA followed by Bonferonni posthoc comparison. Self-renewal medium contains: DMEM-low glucose, 15% Chick Embryo Extract (CEE), Penn/Strep (P/S), 1% N2 supplement, 2% B27 supplement, 110 nM Retinoic Acid, 50 μM 2-mercaptoethanol 20 ng/ml bFGF, and 20 ng/ml IGF-1. Differentiation medium is the same except it contains 1% CEE, 10 ng/ml bFGF and no IGF-1. Differences between groups were calculated using ANOVA followed by posthoc Sheffe.
Dissociated fetal rat gut cells were plated at clonal density in non-adherent conditions in self-renewal medium with LEF, a77 or DMSO for 10 days^10. Three to five primary neurospheres per treatment were individually re-plated in adherent conditions with LEF, a77 or DMSO and after three days were dissociated into a single cell suspension using trypsin and collagenase IV. Dissociated cells from each neurosphere were re-plated in non-adherent conditions without LEF or a77 and after 10 days, the number of secondary neurospheres were counted and compared. To assess the number of multipotent primary and secondary neurospheres, a subset of neurospheres were plated adherently for 8 days in self-renewal medium followed by 6 days in differentiation medium. Cultures were fixed in 4% PFA and stained with antibodies against peripherin, GFAP, and SMA to identify neurons (N), glia (G) and myofibroblasts (M) respectively. A total of 5 independent experiments were analyzed, and the number of multipotent secondary neurospheres on a given day are normalized to the DMSO control wells, and differences calculated by ANOVA.

human DHODH, sequence (Q02127 whole entry): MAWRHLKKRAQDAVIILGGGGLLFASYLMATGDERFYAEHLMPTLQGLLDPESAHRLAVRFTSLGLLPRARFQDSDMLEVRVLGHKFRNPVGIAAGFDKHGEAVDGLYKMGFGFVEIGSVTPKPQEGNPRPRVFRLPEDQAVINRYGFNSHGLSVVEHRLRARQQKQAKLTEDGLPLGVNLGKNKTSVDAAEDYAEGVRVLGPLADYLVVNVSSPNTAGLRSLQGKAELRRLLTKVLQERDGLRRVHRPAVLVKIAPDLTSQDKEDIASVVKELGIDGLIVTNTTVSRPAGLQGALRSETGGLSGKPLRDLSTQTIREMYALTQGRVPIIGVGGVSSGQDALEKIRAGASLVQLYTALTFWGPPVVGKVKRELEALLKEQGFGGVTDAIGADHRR

## C[C@@]1(CO)[C@H](O)CC[C@@]2(C)[C@H]1CC[C@H]1C[C@@H]3C[C@@]12CC[C@]3(O)CO [aphidicolin]
[1]
  rescue of neural crest population (crestin ISH): rescue of the neural crest population

## CC(=O)[C@H]1CC[C@H]2[C@@H]3CCC4=CC(=O)CC[C@]4(C)[C@H]3CC[C@]12C [progesterone]
[1]
  rescue of neural crest population (crestin ISH): rescue of the neural crest population

## O=C(O)c1cc(-c2ccc(-c3ccc(-c4cc(C(=O)O)c5cc(Cl)ccc5n4)cc3)cc2)nc2ccc(Cl)cc12 [NSC210627]
[2]
  inhibition of purified malarial DHODH: strong inhibition of both enzymes
[1]; zebrafish embryos, 50% epiboly to 24 hpf
  crestin expression by ISH: strongly abrogated expression of crestin
[3]
  inhibition of purified human DHODH: strong inhibition of both enzymes, at lower concentrations in the human versus malarial forms
[4]
  ventral melanocytes in Xenopus embryos: reduction of ventral melanocytes

## CCCCCCCCCCC1=C(C)C(=O)C(OC)=C(OC)C1=O [decylubiquinone]
[1]
  rescue of neural crest population (crestin ISH): rescue of the neural crest population

## CCCS(=O)(=O)Nc1ccc(F)c(C(=O)c2c[nH]c3ncc(Cl)cc23)c1F [PLX4720]
[5]
  sensitivity of RPMI7951 to the BRAF inhibitor: significantly less sensitive than the other tested cell lines
[6]
  proliferation of non-melanoma cell lines: no effect
[7]
  tumor growth at 12 days post-treatment: 5.7+/−0.16 fold

## C/C(O)=C(\C#N)C(=O)Nc1ccc(C(F)(F)F)cc1 [A771726, teriflunomide]
[8]
  colony size reduced compared to controls: 24%
  number of self-renewing NCSCs from primary stem cell colonies: 35+/−6.16 % of controls
